Data as given in patent US20110256068A1, “CONTRAST MEDIA COMPOSITIONS” (priority 2009, published 2011).

Experiment: Viscosity at 20° C. by U-tube time of fall technique
Type: physicochemical
Conditions: 350 mgl/ml solution, 10 mM Tris, EDTA 0.1 mg/ml
Experimental: The obtained iodine concentration was 356 mgl/ml. The viscosity was determined to 28.7 mPas at 20° C. The osmolality was determined to 295 mOsm/kg.
a) Preparation of a 350 mgl/ml solution of IIIa containing 10 mM Tris and EDTA (0.1 mg/ml)
(§1) To a calibrated flask with a volume of 99.655 ml was added 71.174 g IIIa (water content 2.03%), 153 mg Trizma preset crystals (pH 7.3) and 10 mg EDTA disodium dihydrate followed by 67.330 g Milli-Q water. The mixture was brought to clear solution by intermittent agitation, gentle heating and sonication.
The clear solution with pH=6.95 was filtered through a Millipore Sterivex 0.22 um filter.
b) Preparation of a 350 mgl/ml solution of iopamidol containing 10 mM Tris and EDTA (0.1 mg/ml)
as §1, with “72.429” for “71.174”, “iopamidol” for “IIIa”, “1.7%), 157” for “2.03%), 153”, “66.309” for “67.330”
The clear solution with pH=6.85 was filtered through a Millipore Sterivex 0.22 um filter.
c) The two solutions from a) and b) were mixed in different proportions according to Table 1. After thorough mixing, the viscosity was determined at 20° C. using conventional U-tube time of fall technique.

Viscosity at 20° C. (100% IIIa / 0% iopamidol by volume)	Viscosity at 20° C. (0% IIIa / 100% iopamidol by volume)	Structure (SMILES)
42.9 mPas		O=CN(CC(O)CN(C=O)c1c(I)c(C(=O)NCC(O)CO)c(I)c(C(=O)NCC(O)CO)c1I)c1c(I)c(C(=O)NCC(O)CO)c(I)c(C(=O)NCC(O)CO)c1I (centres unmarked) [IIIa, 5,5′-(2-hydroxypropane-1,3-diyl)bis(formylazanediyl)bis(N^1,N^3-bis(2,3-dihydroxypropyl)-2,4,6-triiodoisophthalamide)]
	15.8 mPas	C[C@H](O)C(=O)Nc1c(I)c(C(=O)NC(CO)CO)c(I)c(C(=O)NC(CO)CO)c1I [iopamidol]
